ChEMBL document CHEMBL5316343, “Design, Synthesis, and Biological Evaluation of a Potent Dual EZH2-BRD4 Inhibitor for the Treatment of Some Solid Tumors” (J Med Chem, 2023)

Key:
[1] = target: Histone-lysine N-methyltransferase EZH2 (Homo sapiens, UniProt Q15910); test: Inhibition of EZH2 (unknown origin) by radiometric assay
[2] = target: Bromodomain-containing protein 4 (Homo sapiens, UniProt O60885); test: Inhibition of BRD4 (unknown origin) by HTRF analysis

Sequence of Histone-lysine N-methyltransferase EZH2 (Q15910 whole entry): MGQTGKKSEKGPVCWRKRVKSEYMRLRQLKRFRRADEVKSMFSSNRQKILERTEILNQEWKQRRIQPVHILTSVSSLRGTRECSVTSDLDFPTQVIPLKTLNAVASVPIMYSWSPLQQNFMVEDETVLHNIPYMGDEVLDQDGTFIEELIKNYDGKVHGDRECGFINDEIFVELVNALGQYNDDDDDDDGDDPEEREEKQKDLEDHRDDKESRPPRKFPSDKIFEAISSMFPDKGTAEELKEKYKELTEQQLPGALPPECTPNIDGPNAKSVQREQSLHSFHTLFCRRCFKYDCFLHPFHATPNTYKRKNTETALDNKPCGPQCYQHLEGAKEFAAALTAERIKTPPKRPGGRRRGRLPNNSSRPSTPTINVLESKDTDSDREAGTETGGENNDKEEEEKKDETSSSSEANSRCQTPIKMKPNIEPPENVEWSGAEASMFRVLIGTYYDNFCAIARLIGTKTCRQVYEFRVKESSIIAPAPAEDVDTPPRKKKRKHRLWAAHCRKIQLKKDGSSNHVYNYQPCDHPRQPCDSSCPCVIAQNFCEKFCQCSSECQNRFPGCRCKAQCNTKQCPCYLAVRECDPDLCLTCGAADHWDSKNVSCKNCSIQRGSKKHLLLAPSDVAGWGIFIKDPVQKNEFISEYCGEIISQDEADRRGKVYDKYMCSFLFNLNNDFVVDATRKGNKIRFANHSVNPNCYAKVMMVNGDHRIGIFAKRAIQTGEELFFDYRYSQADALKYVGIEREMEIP

In the case of Cc1cc(C)c(CNC(=O)c2cc(-c3cn(C)c(=O)c4[nH]ccc34)cc3c2cnn3C2CCCC2)c(=O)[nH]1, the IC50 [1] is reported as 37 nM and the IC50 [2] is reported as > 300 nM.

With Cc1[nH]c(=O)c(CNC(=O)c2cc(-c3cn(C)c(=O)c4[nH]ccc34)cc3c2ccn3CC2CCCCC2)c2c1CCCC2 the IC50 [1] was 80 nM and the IC50 [2] was > 300 nM.

An IC50 [1] of 2.8 nM and an IC50 [2] of 173 nM were found for CCCC(C)n1ccc2c(C(=O)NCc3c(C)cc(C)[nH]c3=O)cc(-c3cn(C)c(=O)c4[nH]ccc34)cc21 (configuration not stated) in this work.

In the case of Cc1[nH]c(=O)c(CNC(=O)c2cc(-c3cn(C)c(=O)c4[nH]ccc34)cc3c2cnn3C2CCCC2)c2c1CCCC2, the IC50 [1] is reported as 46 nM and the IC50 [2] is reported as > 300 nM.

With CCC(CC)n1ccc2c(C(=O)NCc3c4c(c(C)[nH]c3=O)CCCC4)cc(-c3cn(C)c(=O)c4[nH]ccc34)cc21 the IC50 [1] was 16 nM and the IC50 [2] was > 300 nM.

In the case of CCC(C)n1cc(C)c2c(C(=O)NCc3c(C)cc(C)[nH]c3=O)cc(-c3cn(C)c(=O)c4[nH]ccc34)cc21 (configuration not stated), the IC50 [1] is reported as 1.1 nM and the IC50 [2] is reported as > 300 nM.

In the case of Cc1cc(C)c(CNC(=O)c2cc(-c3cn(C)c(=O)c4[nH]ccc34)cc3[nH]ccc23)c(=O)[nH]1, the IC50 [1] is reported as 83 nM and the IC50 [2] is reported as > 300 nM.

An IC50 [1] of 3 nM and an IC50 [2] of 154 nM were found for CCC(CC)n1ccc2c(C(=O)NCc3c(C)cc(C)[nH]c3=O)cc(-c3cn(C)c(=O)c4[nH]ccc34)cc21 in this work.

In the case of Cc1[nH]c(=O)c(CNC(=O)c2cc(-c3cn(C)c(=O)c4[nH]ccc34)cc3[nH]ccc23)c2c1CCCC2, the IC50 [1] is reported as 100 nM and the IC50 [2] is reported as > 300 nM.

With Cc1cc(C)c(CNC(=O)c2cc(-c3cn(C)c(=O)c4[nH]ccc34)cc3[nH]cc(C)c23)c(=O)[nH]1 the IC50 [1] was > 100 nM and the IC50 [2] was > 300 nM.

An IC50 [1] of 63 nM and an IC50 [2] of 187 nM were found for Cc1cc(C)c(CNC(=O)c2cc(-c3cn(C)c(=O)c4[nH]ccc34)cc3c2ccn3CC2CCCCC2)c(=O)[nH]1 in this work.
